From patent publication US12440440B2, “Dry powder esketamine composition for use in the treatment of bipolar depression by pulmonary administration” (Novohale Therapeutics, LLC, priority 2017, dated 2025)
Structures can show the parent of a compound that is named as a salt.

What was measured:
[1] = in vivo; cited from earlier work
[2] = cited from earlier work
[3] = cited from earlier work; remark: listed apart in the source
[4] = nebulized saline solution, inhalation; cited from earlier work
NMDA receptor = settings: cited from earlier work
[5] = 40-minute i.v. infusion of 0.20 mg/kg or 0.40 mg/kg, TRD patients; cited from earlier work
[6] = Predicted esketamine plasma concentration for 0.20 mg/kg 40 minutes intravenous infusion; type: in vivo; settings: human, 0.2 mg/kg, predicted on the basis of literature data
Experimental: The aim of the study was to determine the amount of puffs needed to obtain plasma concentration similar to that sufficient to achieve antidepressant effect as for 0.20 mg/kg 40 minutes intravenous infusion. It can be predicted on the basis of literature data that this corresponds to concentration at 40 min of infusion between about 60 to 100 ng/ml. It was also the aim to determine the number of puffs that allow to avoid a sharp peak of plasma concentration that is considered an important factor inducing adverse psychomimetic and dissociative effects.

[7] = i.v. infusion of racemic ketamine
[8] = oral administration of ketamine

CNC1(c2ccccc2Cl)CCCCC1=O (racemic) [ketamine]
proportion of patients with treatment-resistant depression responsive to treatment [1]: about ⅔
half-period of concentration fall ([2]; after i.v. infusion 0.5 mg/kg for 40 minutes): below 2 hours
systemic concentration of parent drug ([2]; i.v. infusion 0.5 mg/kg for 40 minutes, maintained for about 40 minutes): about 200 ng/ml
bioavailability ([3]; orally administered): 16-20%

CN[C@]1(c2ccccc2Cl)CCCCC1=O [esketamine hydrochloride]
inhaled bioavailability [4]: reduced

NC1(c2ccccc2Cl)CCCCC1=O (stereo not drawn) [norketamine]
maximum concentration as level of ketamine concentration [2, 7]: 10-20%
percentage of AUC norketamine to ketamine [2, 7]: 20-40%
AUC for norketamine relative to ketamine [3, 8]: exceeding 1000%
norketamine level relative to ketamine level [3, 8]: 500-1000%
activity on NMDA receptor relative to ketamine (NMDA receptor): many times less active than ketamine

CN[C@]1(c2ccccc2Cl)CCCCC1=O [esketamine]
antidepressant effects [5]: rapid onset of robust antidepressant effects
concentration at 40 min [6]: 60 to 100 ng/mL
